Measured values from article PMC10853903 (Analytical Chemistry, 2024).

Biological target: agglutinin 120 from Ricinus communis (RCA120) (Ricinus communis, UniProt P06750)
Test: biochemical
Format: binding

## CO[C@@H]1O[C@H](CO)[C@H](O)[C@H](O)[C@H]1O [methyl-β-D-galactoside]
  Kd: 271 µM
